# In publication PMC9374744, “Structural basis for receptor selectivity and inverse agonism in S1P5 receptors” (Nature Communications, 2022):
# Where “and” joins values, the source holds several entries; their conditions need not be identical. Equal entries are not always repeated.
# Legend:
# human WT S1P5 receptor = human WT S1P5 receptor (Homo sapiens, UniProt Q9H228); test: BRET-based cAMP (EPAC biosensor) Gi signaling assay, WT S1P5; settings: WT, Suppl. Fig. 6e
# human S1P5 T79A mutant = human S1P5 T79A mutant (Homo sapiens, UniProt Q9H228, T79A); test: BRET-based cAMP Gi signaling assay, S1P5 T79A; settings: T79A, Suppl. Fig. 6c
# Chain of human S1P5 T79A mutant (Q9H228 whole entry T79A): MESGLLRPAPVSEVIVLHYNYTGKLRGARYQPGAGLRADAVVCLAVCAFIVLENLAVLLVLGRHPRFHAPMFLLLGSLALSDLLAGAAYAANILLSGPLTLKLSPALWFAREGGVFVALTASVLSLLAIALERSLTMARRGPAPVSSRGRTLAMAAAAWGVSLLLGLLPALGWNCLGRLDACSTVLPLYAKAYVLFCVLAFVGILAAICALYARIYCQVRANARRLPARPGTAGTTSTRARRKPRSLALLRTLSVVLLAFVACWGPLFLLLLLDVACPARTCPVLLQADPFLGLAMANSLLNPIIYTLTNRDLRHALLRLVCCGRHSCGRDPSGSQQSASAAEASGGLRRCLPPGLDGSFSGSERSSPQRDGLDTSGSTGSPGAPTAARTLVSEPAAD
# human S1P5 V115A mutant = human S1P5 V115A mutant (Homo sapiens, UniProt Q9H228, V115A); test: BRET-based cAMP Gi signaling assay, S1P5 V115A; settings: V115A, Suppl. Fig. 6e
# Chain of human S1P5 V115A mutant (Q9H228 whole entry V115A): as the sequence (Q9H228 whole entry T79A) above, with A79T, V115A counted along it
# Chain of human WT S1P5 receptor (Q9H228 whole entry): as the sequence (Q9H228 whole entry T79A) above, with A79T counted along it
smiles,measurement,setting,value
"CCCCCCCCCCCCC/C=C/[C@@H](O)[C@@H](N)COP(=O)(O)O [S1P, sphingosine-1-phosphate]","BRET signal, raw replicate readings",human WT S1P5 receptor; S1P 0.685185 nM,0.7239 and 0.7229 and 0.7227 and 0.7322 and 0.7297 and 0.7339 and 0.7264 and 0.7321 and 0.7345
same,"BRET signal, raw replicate readings",human WT S1P5 receptor; S1P 2.05556 nM,0.7237 and 0.7264 and 0.7244 and 0.734 and 0.7307 and 0.7332 and 0.7317 and 0.7311 and 0.7362
same,"BRET signal, raw replicate readings",human WT S1P5 receptor; S1P 6.16667 nM,0.7266 and 0.7231 and 0.7269 and 0.7291 and 0.734 and 0.731 and 0.7324 and 0.7315 and 0.7331
same,"BRET signal, raw replicate readings",human WT S1P5 receptor; S1P 18.5 nM,0.7325 and 0.7286 and 0.7291 and 0.731 and 0.733 and 0.7374 (2×) and 0.7372 and 0.7364
same,"BRET signal, raw replicate readings",human WT S1P5 receptor; S1P 55.5 nM,0.7419 and 0.743 and 0.7446 and 0.7524 and 0.7535 and 0.7545 and 0.7491 and 0.7497 (2×)
same,"BRET signal, raw replicate readings",human WT S1P5 receptor; S1P 185 nM,0.7589 and 0.7571 and 0.7588 and 0.7688 and 0.7682 and 0.766 and 0.76 and 0.7599 and 0.7596
same,"BRET signal, raw replicate readings",human WT S1P5 receptor; S1P 781.25 nM,0.7647 and 0.7661 and 0.7611 and 0.7735 and 0.7751 and 0.7748 and 0.7643 and 0.7625 and 0.7654
same,"BRET signal, raw replicate readings",human WT S1P5 receptor; S1P 3125 nM,0.7721 and 0.769 and 0.7694 and 0.7819 and 0.7829 and 0.7848 and 0.7658 and 0.7706 and 0.7596
same,"BRET signal, raw replicate readings",human WT S1P5 receptor; S1P 12500 nM,0.7775 and 0.7718 and 0.7733 and 0.7869 and 0.7878 and 0.7756 and 0.7691 and 0.7737 and 0.7605
same,"BRET signal, raw replicate readings",human WT S1P5 receptor; S1P 25000 nM,0.7765 and 0.7709 and 0.7762 and 0.7879 and 0.7898 and 0.785 and 0.7721 and 0.7678 and 0.7681
same,"BRET signal, raw replicates",human S1P5 T79A mutant; [S1P] 0.228395 nM,0.728 and 0.7297 and 0.7309 and 0.7306 and 0.7448 and 0.7165 and 0.733 and 0.732 and 0.7327
same,"BRET signal, raw replicates",human S1P5 T79A mutant; [S1P] 0.685185 nM,0.7302 and 0.7321 and 0.7319 and 0.7287 and 0.7311 and 0.7348 and 0.7332 and 0.7318 and 0.7294
same,"BRET signal, raw replicates",human S1P5 T79A mutant; [S1P] 2.05556 nM,0.7333 and 0.7313 and 0.7311 and 0.7385 and 0.7367 and 0.733 and 0.7328 and 0.7316 and 0.7345
same,"BRET signal, raw replicates",human S1P5 T79A mutant; [S1P] 6.16667 nM,0.7337 and 0.7364 and 0.7232 and 0.7384 and 0.7383 and 0.7348 and 0.7304 and 0.7359 and 0.7321
same,"BRET signal, raw replicates",human S1P5 T79A mutant; [S1P] 18.5 nM,0.7347 (2×) and 0.7375 and 0.7387 and 0.7386 and 0.7311 and 0.7341 and 0.7354 and 0.7312
same,"BRET signal, raw replicates",human S1P5 T79A mutant; [S1P] 55.5 nM,0.7438 and 0.7423 (2×) and 0.7417 and 0.7457 and 0.7434 and 0.7489 and 0.7415 and 0.7424
same,"BRET signal, raw replicates",human S1P5 T79A mutant; [S1P] 185 nM,0.7491 (2×) and 0.7494 and 0.7531 and 0.7514 and 0.7551 and 0.7506 and 0.752 and 0.7559
same,"BRET signal, raw replicates",human S1P5 T79A mutant; [S1P] 781.25 nM,0.7686 and 0.7529 and 0.774 and 0.7668 (2×) and 0.7667 and 0.7673 and 0.7649 and 0.7637
same,"BRET signal, raw replicates",human S1P5 T79A mutant; [S1P] 3125 nM,0.7697 and 0.7671 and 0.7674 and 0.7739 and 0.7792 and 0.7768 and 0.7709 (2×) and 0.7684
same,"BRET signal, raw replicates",human S1P5 T79A mutant; [S1P] 12500 nM,0.7734 and 0.7682 and 0.7706 and 0.7812 and 0.7771 and 0.7806 and 0.7763 and 0.7799 and 0.7701
same,"BRET signal, raw replicate readings",human S1P5 V115A mutant; S1P 12500 nM,0.7675
same,"BRET signal, raw replicate readings",human S1P5 V115A mutant; S1P 25000 nM,0.7654 and 0.7708 and 0.7701 and 0.7667 and 0.7652 and 0.763 and 0.7734 and 0.7704 and 0.7743
